Among the test systems are T-47D breast; MDA-N; DMS 273 small cell lung; HOP-18 NSCLC; KM20L2 colon; M19-MEL melanoma; DMS 114 small cell lung; XF 498 CNS.
Holding throughout (test): inhibition of tumour cell growth, NCI panel, 48 h

Values joined by “and” are separate entries in the source; they are usually repeats but may differ in a detail not shown here. Identical values can stand only once.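 Grown in 96-well plates, cells were treated for 48 hours with each compound at five concentrations. Insufficient inhibition: endpoint recorded as highest concentration tested. GI50 is the concentration that inhibits growth by half. TGI: concentration producing complete growth inhibition.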

As for `CCOC(=O)CC1C(CNC(=O)NC)OC(n2cnc3c(NC(=O)Nc4ccccc4)ncnc32)C1O[Si](C)(C)C(C)(C)C` (centres undefined), in the experiment with T-47D breast, the GI50 was 2.55 µM and the TGI is > 100 µM.

For the molecule `CCN(CC)CCOc1ccccc1-n1c(C)ccc1-c1ccccc1`, in the experiment with T-47D breast, the GI50 is 15.7 µM and the TGI turned out to be 34.7 µM.

`COc1ccc(-c2cncn2-c2ccc(-c3nc4cc(OC)c(OC)c(OC)c4s3)cc2)cc1N`: in the experiment with T-47D breast, the GI50 was 3.02 µM and the TGI is > 100 µM.

In the case of `Cc1cc(O)cc(-c2nn(C)cc2-c2cc(N3CCOCC3)nc(-c3cccnc3)n2)c1`, in the experiment on T-47D breast, the GI50 is 2.82 µM and the TGI was 39 µM.

`CN1CCN(c2ccc(NC(=O)c3cncnc3Nc3ccc4c(ccn4Cc4cccc(F)c4)c3)cc2)CC1`: in the experiment with T-47D breast, the GI50 was 2.03 µM and the TGI is 8.15 µM.

Regarding `CCOc1cc(CCNC)c2c(ccc3ccc(OC)c(O)c32)c1OC`, the TGI in the experiment with MDA-N stood at 10.5 µM; in the experiment on T-47D breast it was 51.1 µM.

Consider `Nc1ncc(-c2ccc3ncnc(N4CCc5cc(F)c(Cl)cc54)c3c2)cc1C(F)(F)F`, for which, in the experiment on T-47D breast, the GI50 was 1.07 µM and the TGI is > 100 µM.

As for `CCN(CC)CCC(CNc1c(C)cnc2cc(Cl)ccc12)c1ccc(Cl)c(Cl)c1` (centres undefined), in the experiment with T-47D breast, the GI50 is 2.22 µM and the TGI came out at 7.08 µM.

As to `CCN1C(=O)N[C@H]2[C@@H]3NC(=O)c4ccc(Cl)n4[C@@H]3C[C@]21O`, in the experiment on T-47D breast, the GI50 is 0.222 µM and the TGI turned out to be 0.933 µM.

`COc1ccccc1N1CCN(CC(O)Cn2c(=O)c3c(OC)nc(C)cc3c(=O)n2-c2ccccc2)CC1` (centres undefined): in the experiment on T-47D breast, the GI50 is > 100 µM and the TGI was > 100 µM.

Consider `Clc1ccc2c(NCCNc3nc(N4CCCCC4)nc4ccccc34)ccnc2c1`, for which, in the experiment on T-47D breast, the GI50 was 2.17 µM and the TGI is 6.11 µM.

With `COc1ccc2c3c1OC1C4(CCC5C(C2)N(CC2CC2)CCC351)OCCO4` (centres undefined), the TGI with MDA-N and with T-47D breast was > 100 µM in each case.

`COC(=O)[C@]12CC[C@@H](C)[C@H](C)[C@@H]1C1=CC[C@@H]3[C@@]4(C)C(C=O)=C[C@@](C)(COC(=O)c5ccco5)C4=CC[C@@]3(C)[C@]1(C)CC2`: in the experiment on T-47D breast, the GI50 is 2.68 µM and the TGI is 38.2 µM.

On to `Fc1cccc(-c2nc(-c3c[nH]c4ncccc34)cs2)c1`, for which, in the experiment with T-47D breast, the GI50 is 2.34 µM and the TGI is > 100 µM.

With `CC(NNC(=S)N1CCN(c2ccccn2)CC1)c1cccc[n+]1[O-]` (centres undefined), the TGI in the experiment with MDA-N and in the experiment with T-47D breast was > 100 µM in each case.

In the case of `CC(=O)Nc1ccc(S(=O)(=O)N/N=C(\C)CN2C(=O)c3ccccc3C2=O)cc1`, the TGI with DMS 273 small cell lung, in the experiment on HOP-18 NSCLC, in the experiment on KM20L2 colon and in the experiment with M19-MEL melanoma was > 100 µM each time.

On to `O=C(Cc1ccccc1)N/N=C(/c1nc2ccc([N+](=O)[O-])cc2[nH]c1=O)C(O)c1ccco1` (centres undefined), for which the TGI in the experiment on DMS 114 small cell lung, in the experiment on HOP-18 NSCLC, in the experiment with M19-MEL melanoma and in the experiment on XF 498 CNS was > 100 µM in each case.

As to `NC(CCSCCF)C(=O)O` (centres undefined), the TGI in the experiment on DMS 114 small cell lung, in the experiment on DMS 273 small cell lung, with HOP-18 NSCLC, in the experiment on KM20L2 colon and in the experiment on M19-MEL melanoma was > 100 µM each time.

For `CSc1ccc(NC(=O)CCl)cc1`, the TGI in the experiment on MDA-N and with T-47D breast was > 10 µM each time.

`COc1ccccc1CNC(=O)/C=C/c1ccc(O)c(O)c1`: in the experiment on T-47D breast, the GI50 was 43.4 µM and the TGI was > 100 µM.

In the case of `CCN1Cc2c(/C=C/c3ccccc3)nc3ccc(OC)cc3c2N(c2cccc(Cl)c2)C1`, in the experiment with T-47D breast, the GI50 is 1.74 µM and the TGI amounted to 4.18 µM.

Take `COc1cc(-c2cn(-c3ccc(F)cc3)c(=O)[nH]2)cc(OC)c1OC`: in the experiment on T-47D breast, the GI50 was > 100 µM and the TGI is > 100 µM.

Turning to `COc1ccc(-n2nc(C(=O)NCC(=O)Nc3nc4cc(OC)ccc4s3)c3ccccc3c2=O)cc1`, in the experiment with T-47D breast, the GI50 was 0.927 µM and the TGI turned out to be 5.81 µM.

As for `O=C(O)c1ccccc1C(=O)Nc1cc2c(cc1Br)-c1ccccc1C2=O`, the TGI in the experiment on MDA-N and in the experiment with T-47D breast was > 100 µM each time.

Consider `Cn1c(=O)c2[nH]c(CCS)nc2n(C)c1=O`, for which the TGI with MDA-N and with T-47D breast was > 100 µM in each case.

As for `CC(C)(C)c1cc(C#N)c2c(c1)C(=O)OC2(c1ccccc1)c1ccccc1C#N` (centres undefined), the TGI with DMS 114 small cell lung, in the experiment with DMS 273 small cell lung, in the experiment with HOP-18 NSCLC, in the experiment with KM20L2 colon, in the experiment on M19-MEL melanoma and with XF 498 CNS was > 100 µM each time.

With `Cc1nc2sc(C(=O)Nc3cccc(Cl)c3C)c(N)c2cc1C(O)c1ccccc1` (centres undefined), in the experiment on T-47D breast, the GI50 was 0.0396 µM and the TGI turned out to be 57.6 µM.

In the case of `OCC(O)C(OC1OC(CO)C(O)C(O)C1O)c1nn(-c2ccc(Cl)cc2)c2nc3cc(Cl)c(Cl)cc3nc12` (centres undefined), the TGI in the experiment with DMS 114 small cell lung, with KM20L2 colon, with M19-MEL melanoma and with XF 498 CNS was > 100 µM in each case.

On to `C#CCn1c2c(c3ccccc3c1=O)C(=O)c1ccccc1-2`, for which the TGI in the experiment with MDA-N is > 100 µM; in the experiment on T-47D breast it was 69.4 µM.

For the molecule `O=C(Oc1c(Cl)c(Cl)c(Cl)c(Cl)c1Cl)C1CCCN1C(=O)OCc1ccccc1` (centres undefined), in the experiment on T-47D breast, the GI50 was 2.79 µM and the TGI is 11.3 µM.

For `COc1cc(NC(=O)c2cc3ccccc3cc2O)c(OC)cc1Cl`, in the experiment on T-47D breast, the GI50 is 1.8 µM and the TGI worked out at 6.15 µM.

Regarding `Cc1c(-c2cc(-c3ccccc3)n[nH]c2=O)c2ccccc2n1C`, the TGI with DMS 114 small cell lung, in the experiment on DMS 273 small cell lung, in the experiment on HOP-18 NSCLC, with KM20L2 colon, in the experiment with M19-MEL melanoma and with XF 498 CNS was > 100 µM each time.

As for `O=C(Cc1ccc(-c2ccc(OCCN3CCOCC3)cc2)cn1)NCc1ccccc1`, the TGI in the experiment on T-47D breast was 55.9 µM and > 10 µM.

Take `COC(=O)C[C@@H]1CC=CC(=O)/C1=C(O)/C=C/c1ccccc1`: in the experiment on T-47D breast, the GI50 was 0.549 µM and the TGI came out at 2.66 µM.

(Values after PubChem BioAssay (NCI).)
